Measured values taken from US5444069A, “Imidazo-pyridine angiotensin II antagonists used to treat memory loss” (Warner-Lambert Company, priority 1994, dated 1995).
pIC50: −log10 of the molar value.

What was measured:
[1] = system: rat striatum acetylcholine (ACh); test: effect on rat striatal acetylcholine (ACh) levels; assay type: in vivo; conditions: 0.5 h, ± SEM, vehicle 61.0 ± 2.33, * p < 0.05
Method: ACh concentrations were determined as described below. Each
Results were analyzed by a oneway

[2] = system: angiotensin II receptors (AT1/AT2) of granulosa cell; conditions: 1 μM; 125I-angiotensin II; adapted from Pucell et al., Endocrinology 1991; cited from earlier work
[3] = system: angiotensin II receptors (AT1/AT2) of corpus luteum; test: inhibition of 125I-angiotensin II binding, corpus luteum; parameters: species or system rabbit
[4] = system: angiotensin II induced secretion of AVP; conditions: isolated rat explants; Schiavone et al., Hypertension 1991; cited from earlier work
[5] = target: T1, AT2 receptor (rabbit uterus receptor preparations) (Oryctolagus cuniculus, UniProt G1T351); test: displacement of 3H-angiotensin II from rabbit uterus receptor preparations; assay type: binding; conditions: read-out: IC50 Values in Rabbit Uterine Preparations
T1 construct: cell membrane preparations derived from rabbit uterus and corpus luteum; from tissue; host or cells: rabbit uterus, cell membrane preparation
T1 sequence (G1T351 1-363): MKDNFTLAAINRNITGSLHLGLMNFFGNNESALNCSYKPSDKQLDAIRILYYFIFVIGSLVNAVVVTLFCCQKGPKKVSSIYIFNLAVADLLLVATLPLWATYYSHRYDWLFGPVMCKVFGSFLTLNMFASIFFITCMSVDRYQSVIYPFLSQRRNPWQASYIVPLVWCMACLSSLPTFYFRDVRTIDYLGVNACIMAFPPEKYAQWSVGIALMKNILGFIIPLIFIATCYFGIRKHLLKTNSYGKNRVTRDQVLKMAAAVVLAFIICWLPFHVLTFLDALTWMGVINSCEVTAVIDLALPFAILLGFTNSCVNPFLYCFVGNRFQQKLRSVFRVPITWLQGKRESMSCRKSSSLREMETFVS
From the text: AT2 receptors are known to exist in organs of the female reproductive system. […] More specifically, AT2 receptors are densely located on granulosa cells in atretic follicles of the ovary.

[6] = Barnes et al., Neuroreport 1991, cited from earlier work
[7] = target: T2, AT2 receptor (whole rat brain) (Rattus norvegicus, UniProt P35351); test: angiotensin II receptor binding in whole rat brain (DTT protocol); conditions: whole rat brain; DTT included to eliminate AT1 binding; read-out: IC50 Values in whole Rat Brain Preparations
T2 construct: IC50 Values in whole Rat Brain Preparations; from tissue; host or cells: whole rat brain
T2 sequence (P35351 1-363): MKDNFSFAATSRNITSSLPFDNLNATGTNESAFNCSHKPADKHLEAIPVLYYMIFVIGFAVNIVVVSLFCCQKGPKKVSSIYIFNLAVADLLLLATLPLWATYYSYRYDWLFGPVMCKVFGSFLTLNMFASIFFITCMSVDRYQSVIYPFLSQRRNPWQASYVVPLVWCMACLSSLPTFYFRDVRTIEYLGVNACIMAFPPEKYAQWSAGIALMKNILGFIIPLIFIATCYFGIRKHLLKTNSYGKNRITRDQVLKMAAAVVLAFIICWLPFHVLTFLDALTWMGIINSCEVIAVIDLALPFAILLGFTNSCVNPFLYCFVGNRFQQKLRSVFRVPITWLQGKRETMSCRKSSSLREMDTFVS
From the text: Since receptor-specific binding in whole brain is low and is a mixture of two subtypes, an alternative protocol (Bennett and Snyder, Eur. J. Pharmacol., 67, 11-25) was used. This method includes DTT and thereby eliminates binding at AT1 receptors, thus-allowing evaluation of AT2 receptor events.

[8] = whole body autoradiography in rats; assay type: in vivo, rat
Method: The iodination was initiated by addition of chloramine-T (30 μg, 132 nMol) that was diluted to a concentration of 0.05 M in the same buffer as above. After shaking at room temperature for one minute the reaction was quenched with sodium metabisulfite (10 mg). […] This labeled material was reconstituted in 5% aqueous dextrose containing 30 mg/mL of the disodium salt of unlabeled Example 12 and adjusted to pH 9 by addition of several μL of 1 mM NaOH.
Male and female Sprague-Dawley rats (Charles River, Wilmington, average weight 281 g) were used in the autoradiography studies. Animals were on a fixed light cycle with unrestricted access to normal rat chow and water prior to the experiment. […] Animals were killed at 15 or 60 minutes postdose by halothane anesthesia and were rapidly frozen in acetone with dry ice. Carcasses were subsequently embedded in methylcellulose ice for whole-body sectioning and autoradiography. Autoradiograms were analyzed by computer assisted densitometry.
Results of the autoradiographical experiments are summarized in Table X. A relative scale of radioactivity is assigned with background equal to 0 and the most dense reading (liver and intestines) equal to 10. […] Another site that is highly labeled is the ovarian follicle. It is the most highly labeled non-excretory organ. All other tissues show weaker radioactivity.

[9] = system: angiotensin II receptors (AT1 and AT2), rat brain regions; test: displacement of 125I-angiotensin II from receptor preparations of rat brain regions; assay type: binding; conditions: antagonist 10 μM
Method: The concentration of all three antagonist compounds in these experiments is 1 μM (above the maximal effect concentration).

[10] = 30 mg/kg i.v. rat, scale 0-10, represents excretion

In the case of CCCCc1nc(Cl)c(CO)n1Cc1ccc(-c2ccccc2-c2nn[nH]n2)cc1 [DUP 753, reference compound], the “ACh concentration, rat striatum” value ([1]; 30 mg/kg IP) is given as 67.5 ± 5.71 nM/g, the “% Inhibition with 1 μM Antagonist, Granulosa cell” value [2] is given as 3% and the “% Inhibition with 1 μM Antagonist, Corpus luteum” value ([3]; 1 μM, 125I-angiotensin II, data from Warner-Lambert Co.) is given as 97%. The “displacement of 125I-angiotensin II, corpus luteum (in words)” value ([3]; Table IX) was “displaces nearly all of the radioligand”.
For Cc1cc(Cn2cnc3c2C[C@@H](C(=O)O)N(C(=O)C(c2ccccc2)c2ccccc2)C3)ccc1N [Example 2, (S)-(-)-1-[(4-amino-3-methylphenyl)-methyl]-5-(diphenylacetyl)-4,5,6,7-tetrahydro-1H-imidazo[4,5-c]pyridine-6-carboxylic acid], the “antagonism of angiotensin II induced AVP secretion” value [4] is given as “antagonizing the angiotensin II induced secretion of AVP”, the pIC50 [5] is given as 7.49 and the “reversal of scopolamine-induced amnesia” value [6] is given as “reverses scopalamine-induced amnesia”. The cognition enhancement ([6]; rodent behavioral models) was “does indeed possess cognition enhancing actions in rodent behavioral models”.
COc1ccc(Cn2cnc3c2C[C@@H](C(=O)O)N(C(=O)C(c2ccccc2)c2ccccc2)C3)cc1C [Example 3, (S)-(-)-5-(diphenylacetyl)-4,5,6,7-tetrahydro-1-[(4-methoxy-3-methyl-phenyl)methyl]-1H-imidazo[4,5-c]pyridine-6-carboxylic acid] showed a pIC50 [5] of 7.59.
In the case of O=C(O)[C@@H]1Cc2c(ncn2CCC23CC4CC(CC(C4)C2)C3)CN1C(=O)C(c1ccccc1)c1ccccc1 [Example 4], the pIC50 [5] was 7.04 and the pIC50 [7] was 6.74.
Molecule Cc1cc(Cn2cnc3c2C[C@@H](C(=O)O)N(C(=O)C(c2ccc(F)cc2)c2ccc(F)cc2)C3)ccc1N(C)C [Example 5, (S)-(-)-5-[bis(4-fluorophenyl)acetyl)-1-[[4-(dimethylamino)-3-methyl-phenyl]methyl]-4,5,6,7-tetrahydro-1H-imidazo[4,5-c]pyridine-6-carboxylic acid] has a pIC50 [5] of 7.42.
Work on COc1ccc(Cn2cnc3c2C[C@@H](C(=O)O)N(C(=O)C2c4ccccc4-c4ccccc42)C3)cc1C [Example 6] yielded a pIC50 [5] of 5.92.
Work on Cc1cc(Cn2cnc3c2C[C@@H](C(=O)O)N(C(=O)C(c2ccccc2)c2ccccc2)C3)ccc1[N+](=O)[O-] [Example 7] yielded a pIC50 [5] of 7.17.
Molecule O=C(O)[C@@H]1Cc2c(ncn2Cc2ccccc2)CN1C(=O)C(c1ccccc1)c1ccccc1 [Example 8, (S)-(-)-5-(diphenylacetyl)-4,5,6,7-tetrahydro-1-(phenylmethyl)-1H-imidazo[4,5-c]pyridine-6-carboxylic acid] has a pIC50 [5] of 7.13 and a pIC50 [7] of 5.42.
Molecule COc1ccc(Cn2cnc3c2C[C@@H](C(=O)O)N(C(=O)Cc2ccccc2)C3)cc1C [Example 9, (S)-(-)-4,5,6,7-tetrahydro-1-[(4-methoxy-3-methylphenyl)methyl]-5-(phenylacetyl)-1H-imidazo-[4,5-c]pyridine-6-carboxylic acid] has a pIC50 [5] of 7.02.
In the case of COc1ccc(Cn2cnc3c2C[C@@H](C(=O)O)N(C(=O)C(c2ccc(Cl)cc2)c2ccc(Cl)cc2)C3)cc1C [Example 10, (S)-(-)-5-[bis(4-chlorophenyl)acetyl]-4,5,6,7-tetrahydro-1-[(4-methoxy-3-methylphenyl)methyl]-1H-imidazo-[4,5-c]pyridine-6-carboxylic acid], the pIC50 [5] was 6.92.
Molecule CC(=O)Nc1ccc(Cn2cnc3c2C[C@@H](C(=O)O)N(C(=O)C(c2ccccc2)c2ccccc2)C3)cc1C [Example 11, (S)-(-)-[[4-(acetylamino)-3-methylphenyl]methyl]-5-(diphenylacetyl)-4,5,6,7-tetrahydro-1H-imidazo-[4,5-c]pyridine-6-carboxylic acid] has a pIC50 [5] of 6.82.
For Cc1cc(Cn2cnc3c2C[C@@H](C(=O)O)N(C(=O)C(c2ccccc2)c2ccccc2)C3)cc(I)c1O [Example 12, (S)-(-)-5-(diphenylacetyl)-1-[(4-hydroxy-3-iodo-5-methylphenyl)methyl]-4,5,6,7-tetrahydro-1H-imidazo[4,5-c]pyridine-6-carboxylic acid], the “tissue distribution (in words)” value ([8]; rat, autoradiography) was “selectively distribute to the ovarian follicle”, the pIC50 [5] was 7.60 and the pIC50 [7] was 6.24.
For O=C(O)[C@@H]1Cc2c(ncn2Cc2ccc(C(F)(F)F)cc2)CN1C(=O)C(c1ccccc1)c1ccccc1 [Example 15, (S)-(-)-5-(diphenylacetyl)-4,5,6,7-tetrahydro-1-[[4-(trifluoromethyl)-phenyl]methyl]-1H-imidazo[4,5-c]pyridine-6-carboxylic acid], the pIC50 [7] was 6.11.
With Cc1cccc(Cn2cnc3c2C[C@@H](C(=O)O)N(C(=O)C(c2ccccc2)c2ccccc2)C3)c1 [Example 16, (S)-(-)-5-(diphenylacetyl)-4,5,6,7-tetrahydro-1-[(3-methylphenyl)methyl]-1H-imidazo[4,5-c]pyridine-6-carboxylic acid] the pIC50 [7] was 5.80.
With O=C(CCCN1CCC(O)(c2ccc(Cl)cc2)CC1)c1ccc(F)cc1 [Haloperidol, haloperidol, reference compound] the “ACh concentration, rat striatum” value ([1]; 2 mg/kg IP) was 36.9 ± 3.27 nM/g.
With CNCC(=O)N[C@@H](CCCN=C(N)N)C(=O)N[C@H](C(=O)N[C@@H](Cc1ccc(O)cc1)C(=O)N[C@H](C(=O)N[C@@H](Cc1cnc[nH]1)C(=O)N1CCC[C@H]1C(=O)N[C@@H](C)C(=O)O)C(C)C)C(C)C [SAR, saralasin, reference compound] the “125I-Angiotensin II Bound, Brain Stem” value ([9]; rat brain stem, total 2124) was 288 cpm, the “125I-Angiotensin II Bound, Cerebellum” value ([9]; rat cerebellum, total 571) was 269 cpm and the “125I-Angiotensin II Bound, Cortex” value ([9]; rat cortex, total 766) was 336 cpm. The “125I-Angiotensin II Bound, Cortical Neurons” value ([9]; rat cortical neurons, total 2647) was 293 cpm and the “125I-Angiotensin II Bound, Striatal Membrane” value ([9]; rat striatal membrane, total 2462) was 1295 cpm.
For Cc1cc(Cn2cnc3c2C[C@@H](C(=O)O)N(C(=O)C(c2ccccc2)c2ccccc2)C3)cc([125I])c1O [^125 CI-Example 12], the “Relative Radioactivity, Adrenal” value ([8]; 30 mg/kg i.v. rat, scale 0-10) was 3, the “Relative Radioactivity, Blood” value ([8]; 30 mg/kg i.v. rat, scale 0-10) was 4 and the “Relative Radioactivity, Heart” value ([8]; 30 mg/kg i.v. rat, scale 0-10) was 3. For the same molecule, the “Relative Radioactivity, Kidney” value ([8]; 30 mg/kg i.v. rat, scale 0-10) was 4-8, the “Relative Radioactivity, Lung” value ([8]; 30 mg/kg i.v. rat, scale 0-10) was 4 and the “Relative Radioactivity, Ovarian follicle” value ([8]; 30 mg/kg i.v. rat, scale 0-10) was 9. The “Relative Radioactivity, Ovary (non-follicular)” value ([8]; 30 mg/kg i.v. rat, scale 0-10) was 3-5, the “Relative Radioactivity, Salivary gland” value ([8]; 30 mg/kg i.v. rat, scale 0-10) was 6-7 and the “Relative Radioactivity, Thymus” value ([8]; 30 mg/kg i.v. rat, scale 0-10) was 3. The “Relative Radioactivity, Uterus” value ([8]; 30 mg/kg i.v. rat, scale 0-10) was 2-3, the “Relative Radioactivity, Bladder” value [8, 10] was 4-6 and the “Relative Radioactivity, Intestines” value [8, 10] was 10. For the same molecule, the “Relative Radioactivity, Liver” value [8, 10] was 10 and the “Relative Radioactivity, Testicle” value ([8]; 30 mg/kg i.v. rat, scale background 0 to most dense 10) was 1-2.
